In brackets after ≈: the same amount, converted by molar mass.
Experiments:
[1] = target: benzodiazepine receptors; assay: displacement of 3H-flunitrazepam from benzodiazepine receptors in vitro (rat forebrain membranes); settings: 50% displacement of specific 3H-flunitrazepam binding (1.0 nM, 0° C.), brain membranes of rats, pH 7.1
[2] = test system: spasms induced by pentylenetrazole (pentazol); assay: PTZ spasms antagonism (protection from pentylenetrazole-induced spasms and death); parameters: species or system mice; settings: Mus musculus, ip, 0.5 h; protects 50% of animals from spasms and death; test substance i.p. 15-30 minutes before pentazol 150 mg/kg s.c.; Litchfield and Wilcoxon; read-out: PTZ (ED50) mg/kg in vivo
Procedure: The compounds according to the invention especially show anxiolytic and anticonvulsive effectiveness. […] Pentazol is administered subcutaneously in an amount of 150 mg/kg as hydrochloric acid solution (pH 2-3) 15-30 minutes after the intraperitoneal application of the test substance. This amount induces clonic and tonic spasms, which lead to death in untreated animals. The number of mice which show spasms and the number of them that died 30 minutes after pentazol are recorded (PTZ spasms antagonism).
The ED50 values indicated in the table were determined according to the method of Litchfield and Wilcoxon (J. Pharmacol. exp. Ther. 96 (1949) […]) as the amount of antagonistically acting substance which protects 50% of the animals from spasms and death.

[3] = test system: benzodiazepine receptors; assay: displacement of 3H-flunitrazepam from benzodiazepine receptors in live brain, in vivo; settings: reduction of specific flunitrazepam binding in live brain to 50% of control; normally intraperitoneal; 3H-flunitrazepam i.v. after 15 minutes, forebrain removed after another 20 minutes

Compound | IC50 (ng/ml) in vitro [1] [ng/mL] | ED50 [2] [mg/kg] | ED50 (mg/kg) in vivo [3] [mg/kg]
CCOC(=O)c1ncc2[nH]c3cccc(Oc4ccc(Cl)cc4Cl)c3c2c1COC [5-(2,4-dichlorophenoxy)-4-methoxymethyl-beta-carboline-3-carboxylic acid ethyl ester] | 2.9 (≈ 6.51 nM) | 4 | 3.2
COCc1c(C(=O)OC(C)C)ncc2[nH]c3cccc(Oc4ccccc4Cl)c3c12 [5-(2-Cl-Phenoxy), CH2 OCH3, COOCH(CH3)2] | 2.6 (≈ 6.12 nM) | 4 | 19
CCc1noc(-c2ncc3[nH]c4cccc(Oc5ccccc5Cl)c4c3c2COC)n1 [5-(2-Cl-Phenoxy), CH2 OCH3, drawing 10] | 3.1 (≈ 7.13 nM) | 0.8 | 11
CCOC(=O)c1ncc2[nH]c3cccc(Oc4ccccc4)c3c2c1COC [5-Phenoxy, CH2 OCH3, COOEt, 5-Phenoxy-4-methoxymethyl-beta-carboline-3-carboxylic acid ethyl ester] | 0.3 (≈ 0.797 nM) | 18 | 0.4
CCc1noc(-c2ncc3[nH]c4cccc(Oc5ccccc5)c4c3c2COC)n1 [5-Phenoxy, CH2 OCH3, drawing 12, 5-phenoxy-4-methoxymethyl-3-(3-ethyl-1,2,4-oxadiazol-5-yl)-beta carboline] | 0.6 (≈ 1.5 nM) | 0.1 | 0.3
CCOC(=O)c1ncc2[nH]c3cccc(Oc4ccccc4)c3c2c1C [5-Phenoxy, CH3, COOC2 H5, 5-phenoxy-4-methyl-beta-carboline-3-carboxylic acid ethyl ester, reference compound] | 2.0 (≈ 5.77 nM) | > 30 | 2.8
CCc1noc(-c2ncc3[nH]c4cccc(Oc5ccccc5)c4c3c2C)n1 [5-Phenoxy, CH3, drawing 13, 5-phenoxy-4-methyl-3-(3-ethyl-1,2,4-oxadizaol-5-yl)-beta-carboline] | 4.3 (≈ 11.6 nM) | 2 | 3.9
COCc1c(C(=O)OC(C)C)ncc2[nH]c3ccc(Oc4cccc(Cl)c4C#N)cc3c12 [6-(2-cyano-3-chlorophenoxy)-4-methoxymethyl-beta-carboline-3-carboxylic acid isopropyl ester] | 0.67 (≈ 1.49 nM) | 1 | 3.0
COCc1c(C(=O)OC(C)C)ncc2[nH]c3ccc(Oc4ccccc4C#N)cc3c12 [6-(2-cyanophenoxy)-4-methoxymethyl-beta-carboline-3-carboxylic acid isopropyl ester] | 0.29 (≈ 0.698 nM) | 4 | 3.8
COCc1c(C(=O)OC(C)C)ncc2[nH]c3ccc(Oc4ccccc4[N+](=O)[O-])cc3c12 [6-(2-nitrophenoxy)-4-methoxymethyl-beta-carboline-3-carboxylic acid isopropyl ester] | 0.33 (≈ 0.758 nM) | 13 | 1.8
CCc1noc(-c2ncc3[nH]c4ccc(Oc5ccc(C(C)=O)cc5)cc4c3c2COC)n1 [6-(4-acetylphenoxy), CH2 OCH3, drawing 11, 6(4-acetylphenoxy)-4-methoxymethyl-3-(3-ethyl-1,2,4-oxadizaol-5-yl)-beta-carboline] | 0.45 (≈ 1.02 nM) | 0.3 | 7.7
CCc1noc(-c2ncc3[nH]c4ccc(Oc5ccccc5)cc4c3c2C)n1 [6-Phenoxy, CH3, drawing 14, 6-phenoxy-4-methyl-3-(3-ethyl-1,2,4-oxadiazol-5-yl)-beta carboline] | 3.2 (≈ 8.64 nM) | 2.4 | 2.6

— patent US4945090A, “Phenoxy-substituted beta-carboline derivatives, their production and their use as drugs” (Schering Aktiengesellschaft, priority 1985, dated 1990)
